From patent US20150225369A1, “DDR2 INHIBITORS FOR THE TREATMENT OF OSTEOARTHRITIS” (Merck Patent GmbH, priority 2012, published 2015) come the findings set out here.

The experiment deals with T1, His-tagged human recombinant DDR-2 kinase domain (His-TEV-DDR2 467-855 aa) (Homo sapiens, UniProt Q16832).
T1 construct: His-TEV-DDR2 467-855 aa
T1 sequence (Q16832 467-855): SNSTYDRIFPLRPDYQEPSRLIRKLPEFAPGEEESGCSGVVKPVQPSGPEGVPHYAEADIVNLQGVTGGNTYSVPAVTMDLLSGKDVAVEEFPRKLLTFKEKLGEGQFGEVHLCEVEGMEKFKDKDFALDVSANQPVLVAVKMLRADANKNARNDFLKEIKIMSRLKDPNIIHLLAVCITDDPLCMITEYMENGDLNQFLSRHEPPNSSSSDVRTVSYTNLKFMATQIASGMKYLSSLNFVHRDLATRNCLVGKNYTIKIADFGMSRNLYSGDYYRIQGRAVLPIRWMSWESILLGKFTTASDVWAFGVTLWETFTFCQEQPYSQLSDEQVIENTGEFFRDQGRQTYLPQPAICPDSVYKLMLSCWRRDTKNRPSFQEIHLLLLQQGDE
Put plainly: Autophosphorylation assay for biochemical activity testing of DDR2 (HTRF). The note with it: biochemical DDR2 autophosphorylation. In short, it runs like this:
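Phospho-tyrosine was detected by HTRF between XL665 anti-6His and cryptate anti-phosphotyrosine PT66 antibodies, using the emission ratio. Inhibition was referenced to the inhibitor-free reaction.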
Turning to `CCN(CC)CCOc1cc(Cl)c(C)cc1NC(=O)NCc1ccc(Oc2ccnc(C(=O)NC)c2)cc1` [compound 117, 4-(4-{3-[4-Chloro-2-(2-diethylamino-ethoxy)-5-methyl-phenyl]-ureidomethyl}-phenoxy)-pyridine-2-carboxylic acid methylamide], the IC50 turned out to be 425 nM.

With `CNC(=O)c1cc(Oc2ccc(CNC(=O)Nc3cc(C)c(Cl)cc3OC)cc2C)ccn1` [compound 119, 4-{4-[3-(4-Chloro-2-methoxy-5-methyl-phenyl)-ureidomethyl]-2-methyl-phenoxy}-pyridine-2-carboxylic acid methylamide], the IC50 is 210 nM.

On to `CNC(=O)c1cc(Oc2ccc(CNC(=O)Nc3cc(C)c(Cl)cc3OCCN3CCNCC3)cc2)ccn1` [compound 120, 4-(4-{3-[4-Chloro-5-methyl-2-(2-piperazin-1-yl-ethoxy)-phenyl]-ureidomethyl}-phenoxy)-pyridine-2-carboxylic acid methylamide], for which the IC50 stood at 176 nM.

In the case of `CNC(=O)c1cc(Oc2ccc(CNC(=O)Nc3cc(C(F)(F)F)ccc3OCCN)cc2)ccn1` [compound 121, 4-(4-{3-[2-(2-Amino-ethoxy)-5-trifluoromethyl-phenyl]-ureidomethyl}-phenoxy)-pyridine-2-carboxylic acid methylamide], the IC50 came out at 34 nM.

Turning to `COc1cc(Cl)c(C)cc1NC(=O)NCc1ccc(Oc2ccnc(C(=O)NCCN)c2)cc1` [compound 123, 4-{4-[3-(4-Chloro-2-methoxy-5-methyl-phenyl)-ureidomethyl]-phenoxy}-pyridine-2-carboxylic acid (2-amino-ethyl)-amide], the concentration for half-maximal inhibition (IC50) worked out at 3100 nM.

Consider `COc1cc(Cl)c(C)cc1NC(=O)NCc1ccc(Oc2ccnc(C(=O)NCCCCCCN)c2)cc1` [compound 126, 4-{4-[3-(4-Chloro-2-methoxy-5-methyl-phenyl)-ureidomethyl]-phenoxy}-pyridine-2-carboxylic acid (6-amino-hexyl)-amide], for which the 50% inhibitory concentration (IC50) was 150 nM.

Regarding `CNC(=O)c1cc(Oc2ccc(CNC(=O)Nc3cc(C(F)(F)F)c(Cl)cc3OCCN3CCCC3)cc2)ccn1` [compound 129, 4-(4-{3-[4-Chloro-2-(2-pyrrolidin-1-yl-ethoxy)-5-trifluoromethyl-phenyl]-ureidomethyl}-phenoxy)-pyridine-2-carboxylic acid methylamide], the 50% inhibitory concentration (IC50) stood at 250 nM.

On to `CNC(=O)c1cc(Oc2ccc(CNC(=O)Nc3cc(C(F)(F)F)c(Cl)cc3OCCN3CCOCC3)cc2)ccn1` [compound 131, 4-(4-{3-[4-Chloro-2-(2-morpholin-4-yl-ethoxy)-5-trifluoromethyl-phenyl]-ureidomethyl}-phenoxy)-pyridine-2-carboxylic acid methylamide], for which the IC50 turned out to be 96 nM.

Consider `CCN(CC)CCOc1cc(Cl)c(C(F)(F)F)cc1NC(=O)NCc1ccc(Oc2ccnc(C(=O)NC)c2)cc1` [compound 132, 4-(4-{3-[4-Chloro-2-(2-diethylamino-ethoxy)-5-trifluoromethyl-phenyl]-ureidomethyl}-phenoxy)-pyridine-2-carboxylic acid methylamide], for which the IC50 came out at 125 nM.

For `CNC(=O)c1cc(Oc2ccc(CNC(=O)Nc3cc(C)c(Cl)cc3OCCN3CCOCC3)c(C)c2)ccn1` [compound 133, 4-(4-{3-[4-Chloro-5-methyl-2-(2-morpholin-4-yl-ethoxy)-phenyl]-ureidomethyl}-3-methyl-phenoxy)-pyridine-2-carboxylic acid methylamide], the IC50 worked out at 2000 nM.

On to `CNC(=O)c1cc(Oc2ccc(CNC(=O)Nc3cc(C)c(Cl)cc3OCCN3CCCC3)c(C)c2)ccn1` [compound 134, 4-(4-{3-[4-Chloro-5-methyl-2-(2-pyrrolidin-1-yl-ethoxy)-phenyl]-ureidomethyl}-3-methyl-phenoxy)-pyridine-2-carboxylic acid methylamide], for which the half-maximal inhibitory concentration (IC50) was determined as 1200 nM.

As for `CCN(CC)CCOc1cc(Cl)c(C)cc1NC(=O)NCc1ccc(Oc2ccnc(C(=O)NC)c2)c(C)c1` [compound 136, 4-(4-{3-[4-Chloro-2-(2-diethylamino-ethoxy)-5-methyl-phenyl]-ureidomethyl}-2-methyl-phenoxy)-pyridine-2-carboxylic acid methylamide], the IC50 was found to be 390 nM.

As for `CNC(=O)c1cc(Oc2ccc(CNC(=O)Nc3cc(C)c(Cl)cc3OCCN3CCCC3)cc2C)ccn1` [compound 137, 4-(4-{3-[4-Chloro-5-methyl-2-(2-pyrrolidin-1-yl-ethoxy)-phenyl]-ureidomethyl}-2-methyl-phenoxy)-pyridine-2-carboxylic acid methylamide], the IC50 was 140 nM.

Turning to `CNC(=O)c1cc(Oc2ccc(CNC(=O)Nc3cc(C)c(Cl)cc3OCCN3CCOCC3)cc2C)ccn1` [compound 138, 4-(4-{3-[4-Chloro-5-methyl-2-(2-morpholin-4-yl-ethoxy)-phenyl]-ureidomethyl}-2-methyl-phenoxy)-pyridine-2-carboxylic acid methylamide], the IC50 amounted to 310 nM.

`CNC(=O)c1cc(Oc2ccc(CNC(=O)Nc3cc(C(F)(F)F)c(Cl)cc3OCCN)cc2)ccn1` [compound 140, 4-(4-{3-[2-(2-Amino-ethoxy)-4-chloro-5-trifluoromethyl-phenyl]-ureidomethyl}-phenoxy)-pyridine-2-carboxylic acid methylamide]: the half-maximal inhibitory concentration (IC50) was found to be 121 nM.

Consider `CNCCOc1cc(Cl)c(C(F)(F)F)cc1NC(=O)NCc1ccc(Oc2ccnc(C(=O)NC)c2)c(C)c1` [compound 147, 4-(4-{3-[4-Chloro-2-(2-methylamino-ethoxy)-5-trifluoromethyl-phenyl]-ureidomethyl}-2-methyl-phenoxy)-pyridine-2-carboxylic acid methylamide], for which the IC50 worked out at 41 nM.

Turning to `CNC(=O)c1cc(Oc2ccc(CNC(=O)Nc3cc(Cl)c(C)cc3OC)cc2C)ccn1` [compound 151, 4-{4-[3-(5-Chloro-2-methoxy-4-methyl-phenyl)-ureidomethyl]-2-methyl-phenoxy}-pyridine-2-carboxylic acid methylamide], the IC50 worked out at 100 nM.

As for `CNC(=O)c1cc(Oc2ccc(CNC(=O)Nc3cc(C(F)(F)F)c(Cl)cc3OCCN(C)C)cc2C)ccn1` [compound 152, 4-(4-{3-[4-Chloro-2-(2-dimethylamino-ethoxy)-5-trifluoromethyl-phenyl]-ureidomethyl}-2-methyl-phenoxy)-pyridine-2-carboxylic acid methylamide], the IC50 is 25 nM.

Take `CNC(=O)c1cc(Oc2ccc(CNC(=O)Nc3cc(C)ccc3OC3CCNCC3)cc2)ccn1` [compound 159, 4-(4-{3-[5-Methyl-2-(piperidin-4-yloxy)-phenyl]-ureidomethyl}-phenoxy)-pyridine-2-carboxylic acid methylamide]: the concentration for half-maximal inhibition (IC50) worked out at 83 nM.

Regarding `CNC(=O)c1cc(Oc2ccc(CNC(=O)Nc3cc(C)c(Cl)cc3OCCCCN(C)C)cc2)ccn1` [compound 161, 4-(4-{3-[4-Chloro-2-(4-dimethylamino-butoxy)-5-methyl-phenyl]-ureidomethyl}-phenoxy)-pyridine-2-carboxylic acid methylamide], the IC50 came out at 160 nM.

In the case of `CNC(=O)c1cc(Oc2ccc(CNC(=O)Nc3cc(C)c(Cl)cc3OCCCCN(C)C)cc2C)ccn1` [compound 165, 4-(4-{3-[4-Chloro-2-(4-dimethylamino-butoxy)-5-methyl-phenyl]-ureidomethyl}-2-methyl-phenoxy)-pyridine-2-carboxylic acid methylamide], the IC50 was found to be 210 nM.

Consider `CNC(=O)c1cc(Oc2ccc(CNC(=O)Nc3cc(C(F)(F)F)ccc3OCCOC)cc2)ccn1` [compound 166, 4-(4-{3-[2-(2-Methoxy-ethoxy)-5-trifluoromethyl-phenyl]-ureidomethyl}-phenoxy)-pyridine-2-carboxylic acid methylamide], for which the IC50 is 140 nM.

Regarding `CNC(=O)c1cc(Oc2ccc(CNC(=O)Nc3cc(C(F)(F)F)ccc3OCCOC)cc2C)ccn1` [compound 168, 4-(4-{3-[2-(2-Methoxy-ethoxy)-5-trifluoromethyl-phenyl]-ureidomethyl}-2-methyl-phenoxy)-pyridine-2-carboxylic acid methylamide], the 50% inhibitory concentration (IC50) was found to be 130 nM.

Consider `CNC(=O)c1cc(Oc2ccc(CNC(=O)Nc3cc(C)ccc3OC3CCNCC3)cc2C)ccn1` [compound 171, 4-(2-Methyl-4-{3-[5-methyl-2-(piperidin-4-yloxy)-phenyl]-ureidomethyl}-phenoxy)-pyridine-2-carboxylic acid methylamide], for which the IC50 came out at 47 nM.

`CNC(=O)c1cc(Oc2ccc(CNC(=O)Nc3cc(Cl)c(C)cc3OCCN3CCCC3)cc2)ccn1` [compound 173, 4-(4-{3-[5-Chloro-4-methyl-2-(2-pyrrolidin-1-yl-ethoxy)-phenyl]-ureidomethyl}-phenoxy)-pyridine-2-carboxylic acid methylamide]: the half-inhibitory concentration (IC50) amounted to 260 nM.

`CNC(=O)c1cc(Oc2ccc(CNC(=O)Nc3cc(Cl)c(C)cc3OCCN)cc2)ccn1` [compound 176, 4-(4-{3-[2-(2-Amino-ethoxy)-5-chloro-4-methyl-phenyl]-ureidomethyl}-phenoxy)-pyridine-2-carboxylic acid methylamide]: the IC50 was determined as 27 nM.

Turning to `CNC(=O)c1cc(Oc2ccc(CNC(=O)Nc3cc(C(F)(F)F)ccc3OCCNS(C)(=O)=O)cc2)ccn1` [compound 180, 4-(4-{3-[2-(2-Methanesulfonylamino-ethoxy)-5-trifluoromethyl-phenyl]-ureidomethyl}-phenoxy)-pyridine-2-carboxylic acid methylamide], the 50% inhibitory concentration (IC50) amounted to 32 nM.
